# Laboratory results from the supplement of paper PMC10331698.
# ± gives the standard deviation of the averaged measurements.
# Legend:
# [1] = compound: CNS(=O)(=O)C(F)(F)C(F)(F)C(F)(F)C(F)(F)C(F)(F)C(F)(F)C(F)(F)C(F)(F)F [N-Methylperfluorooctanesulfonamide]; assay: level (log10 ratio to DMSO vehicle control); higher = higher biomarker level / cell amount than vehicle control; details: in DMSO
# Experimental: (§1)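 BioMAP Diversity Plus panel of 12 human primary cell co-culture systems (3C, 4H, LPS, SAg, BT, BF4T, BE3C, CASM3C, HDF3CGF, KF3CT, MyoF, Mphg). Compounds were added 1 h before stimulation and left for 24 h (MyoF 48 h; BT 72 h for soluble read-outs or 6 d for IgG). Biomarkers were read by ELISA, cytotoxicity by SRB, PBMC viability and proliferation by Alamar Blue. Each well value was divided by the mean of 8 DMSO control wells on the same plate and log10 transformed; duplicate blinded samples were tested at 4 concentrations.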
# [2] = compound: O=C(O)C(F)(F)C(F)(F)C(F)(F)C(F)(F)C(F)(F)C(F)(F)C(F)(F)C(F)(F)C(F)(F)C(F)(F)C(F)(F)C(F)(F)F [Perfluorotridecanoic acid]; assay: as above; details: in DMSO
# Experimental: as §1
test system,measurement,setting,value
lMphg:sIL-10,level (log10),[1]; 6700 nM,-0.0935 ± 0.016
same,level (log10),[1]; 20000 nM,-0.115 ± 0.03
same,level (log10),[1]; 60000 nM,-0.169 ± 0.1
same,level (log10),[2]; 1500 nM,-0.044 ± 0.0057
same,level (log10),[2]; 4400 nM,-0.039 ± 0.0042
same,level (log10),[2]; 13000 nM,-0.022 ± 0.013
same,level (log10),[2]; 40000 nM,-0.044 ± 0.02
